Reference: patent US20240197726A1, “NOVEL TETRAHYDROISOQUINOLINE ALKALOID COMPOUND CONTAINING MACROCYCLE” (THE UNIVERSITY OF TOKYO, priority 2021, published 2024)
Read-outs that look alike come from different tables or passages of the source.

How the values were obtained:
Format in all cases: cell-based
[1] = tested on: HCC2998 colorectal cancer cells; experiment: antitumor activity, sulforhodamine B cell growth assay, HCC2998; conditions: HCC2998, drug exposure 48 hours, read-out: GI50 value: 50% growth inhibitory concentration
Method: (§1) The THIQ compound containing a macrocyclic structure of the present invention was administered to various cancer cell lines, and the antitumor activity (Go value) was observed. Specifically, verification was performed according to the literature (Yamori, T.; Matsunaga, A.; Sato, S.; Yamazaki, K.; Komi, A.; Ishizu, K. et al. Cancer Res. 1999, 59, 4042) by the following procedure.
(§2) Cells were plated at an appropriate density in a 96-well plate in RPMI 1640 together with 5% fetal bovine serum, and adhered overnight. The cells were exposed to a drug for 48 hours. Then, according to the sulforhodamine B assay described by Skehan et al (Skehan P., Storeng R., Scudiero D., Monks A., McMahon J., Vistica D., Warren J. T., Bokesch H., Kenney S., Boyd M. R. J Natl. Cancer Inst, 1990, 82, 1107-1112), the cell growth rate was measured. The absorbance of the control well (C) and the test well (T) was measured at 525 nm. In addition, the time at which the drug was added was set as time 0, and the absorbance for the test well (T0) was measured. Using these measured values, the cell growth inhibitory effect (% growth=PG) was calculated by the following formula at each concentration of the drug.
(§3) (T<T0): PG=100×[(T−T0)/T]
(§4) The PG values determined above for each cell line were plotted against the concentration (logarithm) on a semi-logarithmic graph, and summarized for each visceral cancer. Concentrations at which the dose-response curve of each cell line crossed the horizontal line of PG=50%, 0%, or −50% were calculated. These concentrations were defined as Log GI50, Log TGI, and Log LC50. Actually, using two data points of the drug concentration before and after crossing each horizontal line, the drug concentration (logarithmic value) at the intersection of the straight line connecting the two points and the horizontal line for each PG was calculated.

DMS114 lung cancer cells = experiment: antitumor activity, sulforhodamine B cell growth assay, DMS114; conditions: DMS114, drug exposure 48 hours, read-out: GI50 value: 50% growth inhibitory concentration
Method: as §1, §2, §3, §4

[2] = tested on: SF-295 central nervous system cancer cells; experiment: antitumor activity, sulforhodamine B cell growth assay, SF-295; conditions: SF-295, drug exposure 48 hours, read-out: GI50 value: 50% growth inhibitory concentration
Method: as §1, §2, §3, §4

[3] = tested on: NCI-H522 lung cancer cells; experiment: antitumor activity, sulforhodamine B cell growth assay, NCI-H522; conditions: NCI-H522, drug exposure 48 hours, read-out: GI50 value: 50% growth inhibitory concentration
Method: as §1, §2, §3, §4

[4] = tested on: MDA-MB-231 breast cancer cells; experiment: antitumor activity, sulforhodamine B cell growth assay, MDA-MB-231; conditions: MDA-MB-231, drug exposure 48 hours, read-out: GI50 value: 50% growth inhibitory concentration
Method: as §1, §2, §3, §4

[5] = tested on: HBC-4 breast cancer cells; experiment: antitumor activity, sulforhodamine B cell growth assay, HBC-4; conditions: HBC-4, drug exposure 48 hours, read-out: GI50 value: 50% growth inhibitory concentration
Method: as §1, §2, §3, §4

[6] = tested on: MKN74 gastric cancer cells; experiment: antitumor activity, sulforhodamine B cell growth assay, MKN74; conditions: MKN74, drug exposure 48 hours, read-out: GI50 value: 50% growth inhibitory concentration
Method: as §1, §2, §3, §4

A549 lung cancer cells = experiment: antitumor activity, sulforhodamine B cell growth assay, A549; conditions: A549, drug exposure 48 hours, read-out: GI50 value: 50% growth inhibitory concentration
Method: as §1, §2, §3, §4

[7] = tested on: OVCAR-5 cervical cancer cells; experiment: antitumor activity, sulforhodamine B cell growth assay, OVCAR-5; conditions: OVCAR-5, drug exposure 48 hours, read-out: GI50 value: 50% growth inhibitory concentration
Method: as §1, §2, §3, §4

[8] = tested on: HCT-116 colorectal cancer cells; experiment: antitumor activity, sulforhodamine B cell growth assay, HCT-116; conditions: HCT-116, drug exposure 48 hours, read-out: GI50 value: 50% growth inhibitory concentration
Method: as §1, §2, §3, §4

[9] = tested on: NCI-H23 lung cancer cells; experiment: antitumor activity, sulforhodamine B cell growth assay, NCI-H23; conditions: NCI-H23, drug exposure 48 hours, read-out: GI50 value: 50% growth inhibitory concentration
Method: as §1, §2, §3, §4

[10] = tested on: BSY-1 breast cancer cells; experiment: antitumor activity, sulforhodamine B cell growth assay, BSY-1; conditions: BSY-1, drug exposure 48 hours; read-out: GI50 value: 50% growth inhibitory concentration
Method: as §1, §2, §3, §4

[11] = tested on: SF-539 central nervous system cancer cells; experiment: antitumor activity, sulforhodamine B cell growth assay, SF-539; conditions: SF-539, drug exposure 48 hours, read-out: GI50 value: 50% growth inhibitory concentration
Method: as §1, §2, §3, §4

[12] = tested on: DU-145 prostate cancer cells; experiment: antitumor activity, sulforhodamine B cell growth assay, DU-145; conditions: DU-145, drug exposure 48 hours, read-out: GI50 value: 50% growth inhibitory concentration
Method: as §1, §2, §3, §4

[13] = tested on: NCI-H460 lung cancer cells; experiment: antitumor activity, sulforhodamine B cell growth assay, NCI-H460; conditions: NCI-H460, drug exposure 48 hours, read-out: GI50 value: 50% growth inhibitory concentration
Method: as §1, §2, §3, §4

[14] = tested on: SF-268 central nervous system cancer cells; experiment: antitumor activity, sulforhodamine B cell growth assay, SF-268; conditions: SF-268, drug exposure 48 hours, read-out: GI50 value: 50% growth inhibitory concentration
Method: as §1, §2, §3, §4

[15] = tested on: PC-3 prostate cancer cells; experiment: antitumor activity, sulforhodamine B cell growth assay, PC-3; conditions: PC-3, drug exposure 48 hours; read-out: GI50 value: 50% growth inhibitory concentration
Method: as §1, §2, §3, §4

ACHN kidney cancer cells = experiment: antitumor activity, sulforhodamine B cell growth assay, ACHN; conditions: ACHN, drug exposure 48 hours, read-out: GI50 value: 50% growth inhibitory concentration
Method: as §1, §2, §3, §4

| SMILES | GI50 ([1]; Homo sapiens, HCC 2998) [nM] | GI50 (DMS114 lung cancer cells; Homo sapiens, DMS-114) [nM] | GI50 ([2]; Homo sapiens) [nM] | GI50 ([3]; Homo sapiens) [nM] | GI50 ([4]; Homo sapiens) [nM] | GI50 ([5]; HBC4) [nM] | GI50 ([6]; Homo sapiens, MKN-74) [nM] | GI50 (A549 lung cancer cells; Homo sapiens) [nM] | GI50 ([7]; Homo sapiens) [nM] | GI50 ([8]; Homo sapiens) [nM] | GI50 ([9]; Homo sapiens) [nM] | GI50 [10] [nM] | GI50 ([11]; Homo sapiens) [nM] | GI50 ([12]; Homo sapiens) [nM] | GI50 ([13]; Homo sapiens) [nM] | GI50 ([14]; Homo sapiens) [nM] | GI50 [15] [nM] | GI50 (ACHN kidney cancer cells; Homo sapiens) [nM] | also measured |
| --- | --- | --- | --- | --- | --- | --- | --- | --- | --- | --- | --- | --- | --- | --- | --- | --- | --- | --- | --- |
| COc1c(C)cc2c(c1O)[C@@H]1[C@@H]3Cc4c5c(C)c6c(c4C(CNC(=O)[C@H](C)NC(=O)OCC4C=C(CO5)Cn5c(=O)n(-c7ccccc7)c(=O)n54)N3[C@@H](C#N)[C@H](C2)N1C)OCO6 [Compound 16] | 17 | 3.8 | 29 | 2.4 | 6.7 | 5.2 | 32 | 51 | 31 | 9.3 | 20 | 3.1 | 8.2 | 41 | 36 | 13 | 26 | 25 | – |
| COc1c(C)cc2c(c1O)C1C3Cc4c5c(C)c6c(c4C(CNC(=O)C(C)NC(=O)OCC4C=C(CO5)CC5C(=O)N(c7ccccc7)C(=O)C45)N3C(C#N)C(C2)N1C)OCO6 (stereo not drawn) [Compound 18] | – | – | – | – | – | – | – | – | – | – | – | 19 | – | – | – | – | 170 | – | GI50 [1]: 95 nM; GI50 (DMS114 lung cancer cells): 12 nM; GI50 [2]: 300 nM; GI50 [3]: 20 nM; GI50 [4]: 41 nM; GI50 [5]: 30 nM; GI50 [6]: 120 nM; GI50 (A549 lung cancer cells): 540 nM; GI50 [7]: 280 nM; GI50 [8]: 74 nM; GI50 [9]: 110 nM; GI50 [11]: 33 nM; GI50 [12]: 330 nM; GI50 [13]: 260 nM; GI50 [14]: 74 nM; GI50 (ACHN kidney cancer cells): 240 nM |
| COc1c(C)cc2c(c1O)[C@@H]1[C@@H]3Cc4c5c(C)c6c(c4C(CNC(=O)[C@H](C)N(C)CC#CCO5)N3[C@@H](C#N)[C@H](C2)N1C)OCO6 [Compound 29] | 2.8 | 0.89 | 3.4 | 0.6 | 2.3 | 1.5 | 3.7 | 3.4 | 3.2 | 2.4 | 2.6 | 0.6 | 1.3 | 3.5 | 2.8 | 2.8 | 3 | 2.2 | – |
